From patent US20250221953A1 (The University of Chicago, priority 2022, published 2025) come the findings set out here.

In the assay the test system is Jurkat T cells. It is filed as cell-based, human. The conditions noted are these: IL-2 production level in treated group compared to control group, 48 hours treatment, then anti-CD3/anti-CD28 12 hours. From the text:
Two preliminary screens were designed and performed.
To construct “blood chemical compound library for cell-based screening purposes, components such as antibodies that are difficult to distinguish due to a wide variety, and some supplements that only function at a whole organism level including fish oils and herbs were excluded. Physiological ranges of serum levels of individual blood chemicals are available in the human metabolome database (https://hmdb.ca/) and applied in the experimental design. For first screen 1a, Jurkat T cells were treated with blood chemical library for 48 hours and then activated with 2.5 μg/mL anti-CD3 and 0.5 μg/mL anti-CD28 antibodies for another 12 hours, followed by measurement of IL-2 level in medium supernatant using ELISA kit (Biolegend). For first screen 1b, 1×10^5 PD-1^+ Jurkat T cells were co-cultured with 2×10^4 H596 (PD-L1^+) cells in a well of 96-well plate for 60 hours, and then activated with 2.5 μg/mL anti-CD3 and 0.5 μg/mL anti-CD28 antibodies for another 12 hours, followed by measurement of IL-2 level in medium supernatant using ELISA kit. Please also refer to Resources Table and Table 1-2 for more details.

Where a name gives a salt, the structure may show the parent alone. Read-outs that look alike come from different tables or passages of the source.

As to `O=C([O-])/C=C/C(=O)[O-].[Fe+2]` [Ferrous Fumarate], the “Relative changed percentage (%)” value is 6.278%.
As for `OCC(O)CO` [GLYCEROL MOLECULAR BIOLOGY REAGENT, GLYCEROL], the “Relative changed percentage (%)” value worked out at 39.3621%.
Still for that read-out and setting: the value for `Cl.N=C(N)N` [GUANIDINE IIYDROCIILORIDE,, GUANIDINE IIYDROCIILORIDE] was 41.83%.
The same measure, in the same setting: the same measure for `Nc1nc2c(ncn2[C@@H]2O[C@@H]3COP(=O)([O-])O[C@H]3[C@H]2O)c(=O)[nH]1.[Na+]` [GUANOSINE 3′:5′-CYCLIC MONOPIIOSPIIATE SODIUM]: 8.266%; for `CCCCC/C=C\C/C=C\C/C=C\CCCCC(=O)O` [Gamma linolenic acid]: 9.058%.
For the molecule `Cl.N[C@H]1C(O)O[C@H](CO)[C@@H](O)[C@@H]1O` (stereo partly shown) [Glucosamine Hydrochloride], the “Relative changed percentage (%)” value (Hydrochloride) was −6.979%.
For the molecule `NCC(=O)O` [Glycine], the “Relative changed percentage (%)” value is on record as −8.966%.
Still for that read-out and setting: the value for `NCCc1c[nH]cn1` [HISTAMINE FREE BASE CRYSTALLINE, HISTAMINE FREE BASE] was −3.594%.
Same read-out and setting: the value for `OC[C@H]1O[C@@H](Oc2c[nH]c3ccccc23)[C@H](O)[C@@H](O)[C@@H]1O` [INDOXYL beta-D-GLUCOSIDE] was 30.46%.
On the same count and under the same terms, the same measure for `O[C@H]1[C@H](O)[C@@H](O)[C@H](O)[C@@H](O)[C@H]1O` [Inositol]: 15.38%.
As for `C[C@H](O)C(=O)[O-].[Na+]` [L(+)LACTIC ACID SODIUM], the “Relative changed percentage (%)” value is 5.082%.
As to `C[N+](C)(C)[C@@H](Cc1c[nH]c(=S)[nH]1)C(=O)[O-]` [L-(+)-ERGOTHIONEINE INNER SALT], the “Relative changed percentage (%)” value is on record as −10.39%.
Same read-out and setting: the same measure for `O=C1O[C@H]([C@@H](O)CO)C(O)=C1O` [L-ASCORBIC ACID]: 14.49%.
On to `N=C(N)NCCC[C@H](N)C(=O)O` [L-Arginine], for which the “Relative changed percentage (%)” value amounted to 10.75%.
Same read-out and setting: the value for `NC(=O)C[C@H](N)C(=O)O` [L-Asparagine] was 28.4787%; that for `N[C@@H](CC(=O)O)C(=O)O` [L-Aspartic Acid] was −9.615%; that for `N[C@@H](CC(=O)[O-])C(=O)[O-].[K+].[K+]` [L-Aspartic acid potassium salt] was 4.421%.
Still for that read-out and setting: the same measure for `NC(=O)NCCC[C@H](N)C(=O)O` [L-CITRULLINE]: −3.384%.
On the same count and under the same terms, the same measure for `N[C@@H](CS)C(=O)O` [L-CYSTEINE BIOULTRA,, L-CYSTEINE]: −22.74%; for `N[C@@H](CS)C(=O)O` [L-Cysteine]: 32.82%; for `N[C@@H](CSSC[C@H](N)C(=O)O)C(=O)O` [L-Cystine]: −19.73%.
As for `N[C@@H](CCC(=O)N[C@@H](CS)C(=O)NCC(=O)O)C(=O)O` [L-GLUTATHIONE REDUCED], the “Relative changed percentage (%)” value was determined as 48.28%.
On the same count and under the same terms, the value for `N[C@@H](CCC(=O)O)C(=O)O` [L-Glutamic Acid] was 2.2718%.
Same read-out and setting: the same measure for `NC(=O)CC[C@H](N)C(=O)O` [L-Glutamine]: 25.52%; for `Cl.N[C@@H](Cc1c[nH]cn1)C(=O)O` [L-Histidine hydrochloride]: 3.531%; for `CC[C@H](C)[C@H](N)C(=O)O` [L-Isoleucine]: −8.642%.
For the molecule `CC(C)C[C@H](N)C(=O)O` [L-Leucine], the “Relative changed percentage (%)” value was −7.16%.
Same read-out and setting: the value for `Cl.NCCCC[C@H](N)C(=O)O` [L-Lysine hydrochloride] was −1.605%.
Still for that read-out and setting: the value for `CSCC[C@H](N)C(=O)O` [L-Methionine] was −11.84%; that for `Cl.NCCC[C@H](N)C(=O)O` [L-ORNITHINE MONOHYDROCHLORIDE] was 8.054%.
The same measure, in the same setting: the value for `N[C@@H](Cc1ccccc1)C(=O)O` [L-Phenylalanine] was −17.2378%.
Consider `O=C(O)[C@@H]1CCCN1` [L-Proline], for which the “Relative changed percentage (%)” value is on record as −3.935%.
With `N[C@@H](CO)C(=O)O` [L-Serine], the “Relative changed percentage (%)” value was −22.11%.
Still for that read-out and setting: the same measure for `N[C@@H](Cc1cc(I)c(Oc2cc(I)c(O)c(I)c2)c(I)c1)C(=O)O` [L-THYROXINE]: 18.7243%; for `C[C@@H](O)[C@H](N)C(=O)O` [L-Threonine]: −6.543%.
Same read-out and setting: the same measure for `N[C@@H](Cc1c[nH]c2ccccc12)C(=O)O` [L-Tryptophan]: 1.358%; for `N[C@@H](Cc1ccc(O)cc1)C(=O)O` [L-Tyrosine]: −13.45%; for `CC(C)[C@H](N)C(=O)O` [L-Valine]: 5.296%.
The same measure, in the same setting: the same measure for `N[C@@H](CCC(=O)N[C@@H](CS)C(=O)NCC(=O)O)C(=O)O` [L-glutathione]: 13.46%; for `[S]=[Pb]` [LEAD(II) SULFIDE]: −13.63%.
With `CC(=O)CC(=O)[O-].[Li+]` [LITHIUM ACETOACETATE/Acetoacetic acid, LITHIUM ACETOACETATE], the “Relative changed percentage (%)” value is −21.48%.
Same read-out and setting: the same measure for `CC1=C[C@H](O)CC(C)(C)[C@H]1/C=C/C(C)=C/C=C/C(C)=C/C=C/C=C(C)/C=C/C=C(C)/C=C/C1=C(C)C[C@@H](O)CC1(C)C` [Lutein]: 31.92%; for `CC(C)=CCC/C(C)=C/C=C/C(C)=C/C=C/C(C)=C/C=C/C=C(C)/C=C/C=C(C)/C=C/C=C(\C)CCC=C(C)C` [Lycopene]: 30%; for `[Cl-].[Cl-].[Mg+2]` [MAGNESIUM CHLORIDE ANHYDROUS]: 31.9%.
Still for that read-out and setting: the value for `COc1ccc2[nH]cc(CCNC(C)=O)c2c1` [MELATONIN CRYSTALLINE/melatonin, melatonin] was 56.15%; that for `[Cl][Hg][Cl]` [MERCURY(II) CHLORIDE] was −2.995%.
`O[C@H]1[C@H](O)[C@@H](O)[C@H](O)[C@@H](O)[C@H]1O` [MYO-INOSITOL]: the “Relative changed percentage (%)” value worked out at 40.7157%.
As for `N[C@@H](CC(=O)[O-])C(=O)[O-].[Mg+2]` [Magnesium Aspartate], the “Relative changed percentage (%)” value was −4.156%.
For the molecule `O=C(O)CC(O)C(=O)O` (stereo not shown) [Malic acid], the “Relative changed percentage (%)” value turned out to be 38.52%.
Still for that read-out and setting: the value for `O=S(=O)([O-])[O-].[Mn+2]` [Manganese sulfate] was 29.55%; that for `CS(C)(=O)=O` [Methylsulfonylmethane] was −17.53%.
In the case of `O=P([O-])(O)O.[K+]` [Monopotassium Phosphate], the “Relative changed percentage (%)” value turned out to be 28.67%.
Same read-out and setting: the value for `CCCCCCCCCCCCCC(=O)O` [Myristic Acid] was −17.39%.
On the same count and under the same terms, the same measure for `CCCC/C=C\CCCCCCCC(=O)O` [Myristoleic acid]: −21.38%; for `CC(=O)N[C@H]1C(O)O[C@H](CO)[C@@H](O)[C@@H]1O` (stereo partly drawn) [N-acetyl D-glucosamine]: −4.044%; for `NC[C@H](O)c1ccc(O)c(O)c1` [NOREPINEPHRINE]: 40.2469%.
On the same count and under the same terms, the value for `CCCCCCCC/C=C\CCCCCCCCCCCCCC(=O)O` [Nervonic acid] was 37.68%; that for `NC(=O)c1cccnc1` [Niacinamide] was 95.23%; that for `O=C(O)c1cccnc1` [Nicotinic Acid] was 205.6%.
With `COc1nc(N)nc2nc[nH]c12` [O-METHYLGUANINE], the “Relative changed percentage (%)” value is reported as 6.274%.
Regarding `O=C(O)C(=O)O` [OXALIC ACID SODIUM SALT], the “Relative changed percentage (%)” value is −16.88%.
Same read-out and setting: the same measure for `CC[C@H](C)[C@@H]1NC(=O)[C@H](Cc2ccc(O)cc2)NC(=O)[C@@H](N)CSSC[C@@H](C(=O)N2CCC[C@H]2C(=O)N[C@@H](CC(C)C)C(=O)NCC(N)=O)NC(=O)[C@H](CC(N)=O)NC(=O)[C@H](CCC(N)=O)NC1=O` [OXYTOCIN]: −6.991%; for `CCCCCCCC/C=C\CCCCCCCC(=O)O` [Oleic acid]: 77.53%; for `Oc1ccccc1` [PHENOL]: 26.79%.
Same read-out and setting: the same measure for `CC(C)CCCC(C)CCCC(C)CCCC(C)CC(=O)O` (stereo not shown) [PHYTANIC ACID]: −18.61%; for `[Br-].[K+]` [POTASSIUM BROMIDE]: 78.36%; for `[Cl-].[K+]` [POTASSIUM CHLORIDE/potassium, POTASSIUM CHLORIDE]: 38.97%.
As to `c1ncc2[nH]cnc2n1` [PURINE], the “Relative changed percentage (%)” value amounted to 63.4263%.
As for `Cc1ncc(CO)c(CO)c1O` [PYRIDOXINE], the “Relative changed percentage (%)” value was determined as 11.1111%.
On the same count and under the same terms, the same measure for `c1cncnc1` [PYRIMIDINE]: 4.127%.
On the same count and under the same terms, the value for `CC(=O)C(=O)O` [PYRUVIC ACID] was 10.42%; that for `CCCCCCCCCCCCCCCC(=O)O` [Palmitic Acid] was −2.643%; that for `CCCCCC/C=C\CCCCCCCC(=O)O` [Palmitoleic acid] was 54.63%.
